From patent publication US8569316B2, “Pyrimido [5,4-D] pyrimidine derivatives for the inhibition of tyrosine kinases” (Boehringer Ingelheim International GmbH, priority 2009, dated 2013)

Target: B-Raf (V600E)-kinase (Homo sapiens (Human), UniProt P15056, V600E)
Experiment: Kinase test B-Raf (V600E)
Assay type: biochemical
Conditions: 250 μM ATP, biotinylated MEK1 substrate
Method: In a dilution series 10 μL of test substance solution are placed in a multiwell plate. The dilution series is selected so that generally a range of concentrations of 2 μM to 0.128 nM or 0.017 nM is covered. If necessary the initial concentration of 2 μM is changed to 50 μM, 10 μM or 0.4 μM or 0.2857 μM and further dilution is carried out accordingly. The final concentration of DMSO is 5%. 10 μL of the B-Raf (V600E)-kinase solution are pipetted in (containing 0.5 ng B-Raf (V600E)-kinase in 20 mM Tris-HCl pH 7.5, 0.1 mM EDTA, 0.1 mM EGTA, 0.286 mM sodium orthovanadate, 10% glycerol, 1 mg/mL bovine serum albumin, 1 mM dithiothreitol) and the mixture is incubated for 1 h at RT under with shaking. The kinase reaction is started by the addition of 20 μL ATP solution [final concentration: 250 μM ATP, 30 mM Tris-HCl pH 7.5, 0.02% Brij, 0.2 mM sodium orthovanadate, 10 mM magnesium acetate, phosphatase cocktail (Sigma, #P2850, dilution recommended by the manufacturer), 0.1 mM EGTA] and 10 μL MEK1 solution [containing 50 ng biotinylated MEK1 (prepared from purified MEK1 according to standard procedure, e.g. with EZ-Link Sulpho-NHS-LC-Biotin reagent, Pierce, #21335) in 50 mM Hepes pH 7.5, 150 mM NaCl, 10% glycerol, 0.02% Brij-35, 0.2 mM PMSF, 0.2 mM benzamidine] and carried out for 60 min at RT with constant shaking. The reaction is stopped by the addition of 12 μL of a 100 mM EDTA solution and incubation is continued for a further 5 min. 55 μL of the reaction solution are transferred into a streptavidin-coated plate (e.g. Streptawell HighBond, Roche, #11989685001) and shaken gently for 1 h at RT, in order to bind biotinylated MEK1 to the plate. After elimination of the liquid the plate is washed five times with 200 μL of 1×PBS and 100 μL solution of primary antibody plus europium-labelled secondary antibody [Anti Phospho-MEK (Ser217/221), Cell Signaling, #9121 and Eu-N1 labeled goat-anti-rabbit antibody, Perkin Elmer, #AD0105], the primary antibody is diluted 1:2000 and the secondary antibody is diluted to 0.4-0.5 μg/mL in Delfia Assay Buffer (Perkin Elmer, #1244-111). After 1 h shaking at RT the solution is poured away and washed five times with 200 μL Delfia Wash Buffer (Perkin Elmer, #4010-0010/#1244-114). After the addition of 200 μL Enhancement Solution (Perkin Elmer, #4001-0010/#1244-105) the mixture is shaken for 10 min at RT and then measured in a Wallac Victor using the program “Delfia Time Resolved Fluorescence (Europium)”. IC50 values are obtained from these dosage-activity curves using a software program (GraphPadPrizm).

Sequence of B-Raf (V600E)-kinase (P15056 whole entry V600E): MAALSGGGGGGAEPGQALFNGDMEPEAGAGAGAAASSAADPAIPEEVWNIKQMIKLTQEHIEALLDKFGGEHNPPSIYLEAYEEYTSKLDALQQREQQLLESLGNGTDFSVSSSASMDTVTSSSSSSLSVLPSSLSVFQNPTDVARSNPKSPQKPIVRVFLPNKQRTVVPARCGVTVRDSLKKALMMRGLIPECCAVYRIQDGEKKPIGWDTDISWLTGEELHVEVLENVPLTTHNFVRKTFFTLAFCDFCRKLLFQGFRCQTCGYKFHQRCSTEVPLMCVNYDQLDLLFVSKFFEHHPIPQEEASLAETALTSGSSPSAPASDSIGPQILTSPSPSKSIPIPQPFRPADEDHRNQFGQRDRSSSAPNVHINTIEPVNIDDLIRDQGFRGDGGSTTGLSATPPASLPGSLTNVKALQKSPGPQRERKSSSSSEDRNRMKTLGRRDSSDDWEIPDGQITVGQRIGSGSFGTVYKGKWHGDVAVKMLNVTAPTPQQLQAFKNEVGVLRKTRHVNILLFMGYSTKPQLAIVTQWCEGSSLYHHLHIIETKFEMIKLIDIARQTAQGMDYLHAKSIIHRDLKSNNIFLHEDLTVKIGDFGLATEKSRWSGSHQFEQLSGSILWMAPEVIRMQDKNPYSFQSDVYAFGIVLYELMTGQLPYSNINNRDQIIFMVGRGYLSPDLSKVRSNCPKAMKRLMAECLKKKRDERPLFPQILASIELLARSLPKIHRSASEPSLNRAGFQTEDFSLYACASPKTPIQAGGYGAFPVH

Compound	IC50 [nM]
COc1ccc(NC(=O)c2ccc(C)c(Nc3ncnc4cnc(N5CCOCC5)cc34)c2)cc1C(F)(F)F [I-1]	106
COc1ccc(NC(=O)c2ccc(C)c(Nc3ncnc4cnc(N5CCN(C)CC5)cc34)c2)cc1C(F)(F)F [I-2]	224
COc1ccc(NC(=O)c2ccc(C)c(Nc3ncnc4cnc(N5CCCC5)cc34)c2)cc1C(F)(F)F [I-3]	316
Cc1ccc(C(=O)N2CCOCC2)cc1Nc1ncnc2cnc(N3CCOCC3)cc12 [I-4]	> 1400
COc1ccc(NC(=O)c2ccc(C)c(Nc3ncnc4ccc(N5CCOCC5)nc34)c2)cc1C(F)(F)F [III-1]	11
Cc1ccc(C(=O)Nc2cc(C(C)(C)C)on2)cc1Nc1ncnc2ccc(N3CCOCC3)nc12 [III-2]	32
Cc1ccc(C(=O)Nc2cccc(C(C)(C)C#N)c2)cc1Nc1ncnc2ccc(N3CCOCC3)nc12 [III-3]	7
Cc1ccc(C(=O)n2nc(C(C)(C)C)cc2N)cc1Nc1ncnc2ccc(N3CCOCC3)nc12 [III-4]	2060
Cc1ccc(C(=O)Nc2cc(C(C)(C)C)n[nH]2)cc1Nc1ncnc2ccc(N3CCOCC3)nc12 [III-5]	7
Cc1ccc(C(=O)Nc2cc(C(C)(C)C)nn2C)cc1Nc1ncnc2ccc(N3CCOCC3)nc12 [III-6]	15
Cc1ccc(C(=O)Nc2cc(N3CCN(C)CC3)cc(C(F)(F)F)c2)cc1Nc1ncnc2ccc(N3CCOCC3)nc12 [III-7]	4
Cc1ccc(C(=O)Nc2cc(N3CCCN(C)CC3)cc(C(F)(F)F)c2)cc1Nc1ncnc2ccc(N3CCOCC3)nc12 [III-8]	5
Cc1ccc(C(=O)Nc2cc(CN3CCCC3)cc(C(F)(F)F)c2)cc1Nc1ncnc2ccc(N3CCOCC3)nc12 [III-9]	4
Cc1ccc(C(=O)Nc2cc(C(C)(C)C)on2)cc1Nc1ncnc2ccc(N3CCN(C)CC3)nc12 [III-10]	12
COCCN1CCN(c2ccc3ncnc(Nc4cc(C(=O)Nc5cc(C(C)(C)C)on5)ccc4C)c3n2)CC1 [III-11]	35
Cc1ccc(C(=O)Nc2cc(C(C)(C)C)on2)cc1Nc1ncnc2ccc(N3CCN(CC4CCN(C)CC4)CC3)nc12 [III-12]	12
COc1ccc(NC(=O)c2ccc(C)c(Nc3ncnc4ccc(N5CCN(C)CC5)nc34)c2)cc1C(F)(F)F [III-13]	57
COCCN1CCN(c2ccc3ncnc(Nc4cc(C(=O)Nc5ccc(OC)c(C(F)(F)F)c5)ccc4C)c3n2)CC1 [III-14]	140
COc1ccc(NC(=O)c2ccc(C)c(Nc3ncnc4ccc(N5CCN(CC6CCN(C)CC6)CC5)nc34)c2)cc1C(F)(F)F [III-15]	26
COc1ccc(NC(=O)c2ccc(C)c(Nc3ncnc4ccc(N(C)C)nc34)c2)cc1C(F)(F)F [III-16]	44
Cc1ccc(C(=O)Nc2cc(C(C)(C)C)on2)cc1Nc1ncnc2ccc(N(C)C)nc12 [III-17]	9
COc1c(NC(=O)c2ccc(C)c(Nc3ncnc4ccc(N5CCN(C)CC5)nc34)c2)cc(C(C)(C)C)cc1NS(C)(=O)=O [III-18]	225
COCCN1CCN(c2ccc3ncnc(Nc4cc(C(=O)Nc5cc(C(C)(C)C)cc(NS(C)(=O)=O)c5OC)ccc4C)c3n2)CC1 [III-19]	476
COc1c(NC(=O)c2ccc(C)c(Nc3ncnc4ccc(N(C)C5CCOC5)nc34)c2)cc(C(C)(C)C)cc1NS(C)(=O)=O (stereo not shown) [III-20]	24
COc1c(NC(=O)c2ccc(C)c(Nc3ncnc4ccc(NC5CCOC5)nc34)c2)cc(C(C)(C)C)cc1NS(C)(=O)=O (stereo not shown) [III-21]	30
COc1c(NC(=O)c2ccc(C)c(Nc3ncnc4ccc(N5CC[C@@H](F)C5)nc34)c2)cc(C(C)(C)C)cc1NS(C)(=O)=O [III-22]	25
CCN1CCN(c2ccc3ncnc(Nc4cc(C(=O)Nc5cc(C(C)(C)C)cc(NS(C)(=O)=O)c5OC)ccc4C)c3n2)CC1 [III-23]	508
COc1c(NC(=O)c2ccc(C)c(Nc3ncnc4ccc(N5CCOCC5)nc34)c2)cc(C(C)(C)C)cc1NS(C)(=O)=O [III-24]	50

Compound	IC50 [nM]
COc1c(NC(=O)c2ccc(C)c(Nc3ncnc4ccc(N5CCN(CCN6CCOCC6)CC5)nc34)c2)cc(C(C)(C)C)cc1NS(C)(=O)=O [III-25]	638
COc1c(NC(=O)c2ccc(C)c(Nc3ncnc4ccc(N5CCC(N6CCOCC6)C5)nc34)c2)cc(C(C)(C)C)cc1NS(C)(=O)=O (stereo not shown) [III-26]	1460
COc1c(NC(=O)c2ccc(C)c(Nc3ncnc4ccc(C5=CCNCC5)nc34)c2)cc(C(C)(C)C)cc1NS(C)(=O)=O [III-27]	101
COc1c(NC(=O)c2ccc(C)c(Nc3ncnc4ccc(C)nc34)c2)cc(C(C)(C)C)cc1NS(C)(=O)=O [III-28]	431
COc1c(NC(=O)c2ccc(C)c(Nc3ncnc4ccc(C5=CCN(C(C)C)CC5)nc34)c2)cc(C(C)(C)C)cc1NS(C)(=O)=O [III-29]	295
COc1c(NC(=O)c2ccc(C)c(Nc3ncnc4ccc(C5=CCN(C)CC5)nc34)c2)cc(C(C)(C)C)cc1NS(C)(=O)=O [III-30]	344
COc1c(NC(=O)c2ccc(C)c(Nc3ncnc4ccc(C5CCNCC5)nc34)c2)cc(C(C)(C)C)cc1NS(C)(=O)=O [III-31]	70
COc1c(NC(=O)c2ccc(C)c(Nc3ncnc4ccc(C5CCN(C)CC5)nc34)c2)cc(C(C)(C)C)cc1NS(C)(=O)=O [III-32]	151
CCN1CCC(c2ccc3ncnc(Nc4cc(C(=O)Nc5cc(C(C)(C)C)cc(NS(C)(=O)=O)c5OC)ccc4C)c3n2)CC1 [III-33]	185
COc1c(NC(=O)c2ccc(C)c(Nc3ncnc4ccc(C5CCN(C(C)C)CC5)nc34)c2)cc(C(C)(C)C)cc1NS(C)(=O)=O [III-34]	257
COc1c(NC(=O)c2ccc(C)c(Nc3ncnc4ccc(C5CCN(CC6CC6)CC5)nc34)c2)cc(C(C)(C)C)cc1NS(C)(=O)=O [III-35]	288
COCCN1CCC(c2ccc3ncnc(Nc4cc(C(=O)Nc5cc(C(C)(C)C)cc(NS(C)(=O)=O)c5OC)ccc4C)c3n2)CC1 [III-36]	443
COc1c(NC(=O)c2ccc(C)c(Nc3ncnc4ccc(CC5CCNCC5)nc34)c2)cc(C(C)(C)C)cc1NS(C)(=O)=O [III-37]	170
COc1c(NC(=O)c2ccc(C)c(Nc3ncnc4ccc(C5=CCNC5)nc34)c2)cc(C(C)(C)C)cc1NS(C)(=O)=O [III-38]	282
COc1c(NC(=O)c2ccc(C)c(Nc3ncnc4ccc(C5CCNC5)nc34)c2)cc(C(C)(C)C)cc1NS(C)(=O)=O (stereo not shown) [III-39]	151
COc1c(NC(=O)c2ccc(C)c(Nc3ncnc4ccc(C5CCN(C)C5)nc34)c2)cc(C(C)(C)C)cc1NS(C)(=O)=O (stereo not shown) [III-40]	286
COCCN1CCC(c2ccc3ncnc(Nc4cc(C(=O)Nc5cc(C(C)(C)C)cc(NS(C)(=O)=O)c5OC)ccc4C)c3n2)C1 (stereo not shown) [III-41]	315
COc1c(NC(=O)c2ccc(C)c(Nc3ncnc4ccc(C5CCCNC5)nc34)c2)cc(C(C)(C)C)cc1NS(C)(=O)=O (stereo not shown) [III-42]	229
COc1c(NC(=O)c2ccc(C)c(Nc3ncnc4ccc(CC5CNCCOC5)nc34)c2)cc(C(C)(C)C)cc1NS(C)(=O)=O (stereo not shown) [III-43]	213
COc1c(NC(=O)c2ccc(C)c(Nc3ncnc4ccc(CC5CCN(C)CC5)nc34)c2)cc(C(C)(C)C)cc1NS(C)(=O)=O [III-44]	364
CCN1CCC(Cc2ccc3ncnc(Nc4cc(C(=O)Nc5cc(C(C)(C)C)cc(NS(C)(=O)=O)c5OC)ccc4C)c3n2)CC1 [III-45]	530
COc1c(NC(=O)c2ccc(C)c(Nc3ncnc4ccc(CC5CCN(C(C)C)CC5)nc34)c2)cc(C(C)(C)C)cc1NS(C)(=O)=O [III-46]	553
COc1c(NC(=O)c2ccc(C)c(Nc3ncnc4ccc(CC5CCN(CC6CC6)CC5)nc34)c2)cc(C(C)(C)C)cc1NS(C)(=O)=O [III-47]	504
CCCN1CCC(Cc2ccc3ncnc(Nc4cc(C(=O)Nc5cc(C(C)(C)C)cc(NS(C)(=O)=O)c5OC)ccc4C)c3n2)CC1 [III-48]	583
COCCN1CCC(Cc2ccc3ncnc(Nc4cc(C(=O)Nc5cc(C(C)(C)C)cc(NS(C)(=O)=O)c5OC)ccc4C)c3n2)CC1 [III-49]	496
CCOCCN1CCC(Cc2ccc3ncnc(Nc4cc(C(=O)Nc5cc(C(C)(C)C)cc(NS(C)(=O)=O)c5OC)ccc4C)c3n2)CC1 [III-50]	479
Cc1ccc(C(=O)Nc2cc(C(C)(C)C)on2)cc1Nc1ncnc2ccc(C3=CCNCC3)nc12 [III-51]	23
